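Values below derive from 48-hour exposures of cells grown in 96-well plates, with endpoints linearly interpolated between the two concentrations bracketing the appropriate inhibition level. GI50 = concentration required for 50% inhibition of growth.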 The source made the active and inactive calls. No stated cut-off is given here; in the data, active = GI50 up to about 1.1 µM and inactive = higher.
What was measured:
Experiment in all cases: DTP human tumour cell line panel, 48 h
SK-MEL-5 = tested on: SK-MEL-5
Malme-3M = tested on: Malme-3M
M14 = tested on: M14
MDA-MB-435 = tested on: MDA-MB-435
HCC 2998 = tested on: HCC 2998
SN12C = tested on: SN12C
A498 = tested on: A498
NCI-H226 = tested on: NCI-H226
COLO 205 = tested on: COLO 205
HCT-116 = tested on: HCT-116
UO-31 = tested on: UO-31
RXF 393 = tested on: RXF 393
K562 = tested on: K562
HOP-62 = tested on: HOP-62
LOX IMVI = tested on: LOX IMVI
CAKI-1 = tested on: CAKI-1
HOP-92 = tested on: HOP-92
OVCAR-5 = tested on: OVCAR-5
MOLT-4 = tested on: MOLT-4
SK-OV-3 = tested on: SK-OV-3

| Compound | GI50 (SK-MEL-5) | GI50 (Malme-3M) | GI50 (M14) | GI50 (MDA-MB-435) | GI50 (HCC 2998) | GI50 (SN12C) | GI50 (A498) | GI50 (NCI-H226) | GI50 (COLO 205) | GI50 (HCT-116) | GI50 (UO-31) | GI50 (RXF 393) | GI50 (K562) | GI50 (HOP-62) | GI50 (LOX IMVI) | GI50 (CAKI-1) | GI50 (HOP-92) | GI50 (OVCAR-5) | GI50 (MOLT-4) | GI50 (SK-OV-3) |
| --- | --- | --- | --- | --- | --- | --- | --- | --- | --- | --- | --- | --- | --- | --- | --- | --- | --- | --- | --- | --- |
| CN(C)CCNC(=O)c1cccc2[nH]c(-c3ccncc3)nc12 | 2.75 µM (inactive) | 1.91 µM (inactive) | 1.82 µM (inactive) | 1.84 µM (inactive) | 1.95 µM (inactive) | 9.73 µM (inactive) | 4.05 µM (inactive) | 15.2 µM (inactive) | 1.6 µM (inactive) | 4.07 µM (inactive) | 2.77 µM (inactive) | 5.58 µM (inactive) | 2.64 µM (inactive) | 18.7 µM (inactive) | 0.733 µM (active) | 2.55 µM (inactive) | 6.82 µM (inactive) | 10.1 µM (inactive) | 3.56 µM (inactive) |  |
| O=S(=O)(c1ccc2ccccc2c1)N1CCN(S(=O)(=O)c2ccc3ccccc3c2)CC1 | > 100 µM (inactive) | > 100 µM (inactive) | > 100 µM (inactive) | > 100 µM (inactive) | > 100 µM (inactive) | > 100 µM (inactive) | > 100 µM (inactive) | > 100 µM (inactive) | > 100 µM (inactive) | > 100 µM (inactive) | > 100 µM (inactive) | > 100 µM (inactive) | > 100 µM (inactive) | 33.5 µM (inactive) | > 100 µM (inactive) | > 100 µM (inactive) | 34.6 µM (inactive) | > 100 µM (inactive) |  | 51.3 µM (inactive) |
| Oc1ccc2ccccc2c1C(c1ccc(Cl)cc1)c1c(O)ccc2ccccc12 | 2.3 µM (inactive) | 2 µM (inactive) | 4.06 µM (inactive) | 3.18 µM (inactive) | 1.34 µM (inactive) | 2.76 µM (inactive) | 2.7 µM (inactive) |  | 2.06 µM (inactive) | 2.48 µM (inactive) | 2.9 µM (inactive) | 2.96 µM (inactive) | 2.67 µM (inactive) | 3.89 µM (inactive) | 2.91 µM (inactive) | 2.71 µM (inactive) | 1.65 µM (inactive) | 3.08 µM (inactive) | 2.86 µM (inactive) | 4.66 µM (inactive) |
| CCOC(=O)c1cc(C2(O)CCN(CC(C)CC)C2=O)c(-c2cc(C)no2)[nH]1 (stereo unspecified) | > 100 µM (inactive) | > 100 µM (inactive) | > 100 µM (inactive) | > 100 µM (inactive) | > 100 µM (inactive) | > 100 µM (inactive) | > 100 µM (inactive) | > 100 µM (inactive) | > 100 µM (inactive) | > 100 µM (inactive) | > 100 µM (inactive) | > 100 µM (inactive) | > 100 µM (inactive) | > 100 µM (inactive) | > 100 µM (inactive) | > 100 µM (inactive) | > 100 µM (inactive) | > 100 µM (inactive) | > 100 µM (inactive) | > 100 µM (inactive) |
| COc1ccc2oc3c(ccc[n+]3C)c(=O)c2c1 | > 100 µM (inactive) | > 100 µM (inactive) | > 100 µM (inactive) | > 100 µM (inactive) | > 100 µM (inactive) | > 100 µM (inactive) | > 100 µM (inactive) | > 100 µM (inactive) | > 100 µM (inactive) | > 100 µM (inactive) | > 100 µM (inactive) | > 100 µM (inactive) | > 100 µM (inactive) | > 100 µM (inactive) | > 100 µM (inactive) | > 100 µM (inactive) | > 100 µM (inactive) | > 100 µM (inactive) |  | > 100 µM (inactive) |
| Cc1ccc2c(c1C)C(=O)C1(Cc3cc4c(cc3C1=O)CCC4)C2 (stereo unspecified) | > 100 µM (inactive) | > 100 µM (inactive) | > 100 µM (inactive) | > 100 µM (inactive) | > 100 µM (inactive) | > 100 µM (inactive) | > 100 µM (inactive) | > 100 µM (inactive) | > 100 µM (inactive) | > 100 µM (inactive) | > 100 µM (inactive) | 99.8 µM (inactive) | > 100 µM (inactive) |  |  | > 100 µM (inactive) | > 100 µM (inactive) | > 100 µM (inactive) | > 100 µM (inactive) | > 100 µM (inactive) |
| COc1ccc2c(c1)CCN1CCCc3ccccc3C21 (stereo unspecified) | 58.5 µM (inactive) |  | 15.9 µM (inactive) | 20.5 µM (inactive) | 23 µM (inactive) | 42.7 µM (inactive) | > 100 µM (inactive) | 28.1 µM (inactive) | 27.6 µM (inactive) | 30.9 µM (inactive) | 29.4 µM (inactive) | 65.8 µM (inactive) | 30.1 µM (inactive) | 69.2 µM (inactive) | 22.4 µM (inactive) | 54.1 µM (inactive) | 46.2 µM (inactive) | 42.9 µM (inactive) | 32.1 µM (inactive) | 46.3 µM (inactive) |
| CC(C)[Si](CC1=CCCCC12C(=O)N(COCC[Si](C)(C)C)c1ccccc12)(C(C)C)C(C)C (stereo unspecified) | 43.7 µM (inactive) | > 100 µM (inactive) | > 100 µM (inactive) | > 100 µM (inactive) | 65.6 µM (inactive) |  | > 100 µM (inactive) | > 100 µM (inactive) | > 100 µM (inactive) |  | > 100 µM (inactive) | 20.6 µM (inactive) | > 100 µM (inactive) | > 100 µM (inactive) | 29.2 µM (inactive) | > 100 µM (inactive) | 89.3 µM (inactive) | 27.2 µM (inactive) | > 100 µM (inactive) | > 100 µM (inactive) |
| CC(NC(=O)N(C)C)NC(=O)N(C)C | > 10 µM (inactive) | > 10 µM (inactive) | > 10 µM (inactive) | > 10 µM (inactive) | > 10 µM (inactive) | > 10 µM (inactive) | > 10 µM (inactive) | > 10 µM (inactive) | > 10 µM (inactive) | > 10 µM (inactive) | > 10 µM (inactive) | > 10 µM (inactive) | > 10 µM (inactive) | > 10 µM (inactive) | > 10 µM (inactive) | > 10 µM (inactive) | > 10 µM (inactive) |  | > 10 µM (inactive) | > 10 µM (inactive) |
| CCOc1ccc(NC(=O)C(=O)Nn2c(N)nnc2N)cc1 | > 100 µM (inactive) | > 100 µM (inactive) | > 100 µM (inactive) | > 100 µM (inactive) | > 100 µM (inactive) | > 100 µM (inactive) | > 100 µM (inactive) | > 100 µM (inactive) |  | > 100 µM (inactive) | > 100 µM (inactive) | > 100 µM (inactive) | > 100 µM (inactive) | > 100 µM (inactive) | > 100 µM (inactive) | > 100 µM (inactive) | > 100 µM (inactive) | > 100 µM (inactive) | > 100 µM (inactive) | > 100 µM (inactive) |
| O=c1oc2cc(/N=C/c3ccccc3Cl)ccc2c2ccccc12 | > 100 µM (inactive) | > 100 µM (inactive) | > 100 µM (inactive) | > 100 µM (inactive) | > 100 µM (inactive) | > 100 µM (inactive) | > 100 µM (inactive) | > 100 µM (inactive) | > 100 µM (inactive) | 71.3 µM (inactive) | 40.1 µM (inactive) | > 100 µM (inactive) | 45.9 µM (inactive) | > 100 µM (inactive) | 87.3 µM (inactive) | > 100 µM (inactive) | > 100 µM (inactive) | > 100 µM (inactive) | > 100 µM (inactive) |  |
| O=c1oc2c/c(=C\c3ccccc3)c(=O)c3cccc1c3-2 | > 10 µM (inactive) | 24.2 µM (inactive) | 22.4 µM (inactive) | 21.4 µM (inactive) | > 100 µM (inactive) | 47.6 µM (inactive) | > 100 µM (inactive) | 31.7 µM (inactive) | 37.3 µM (inactive) | 25.7 µM (inactive) | 30.1 µM (inactive) | 32.5 µM (inactive) |  | 19.9 µM (inactive) | 19.7 µM (inactive) | 24.1 µM (inactive) | 19.6 µM (inactive) | 61.7 µM (inactive) |  | > 100 µM (inactive) |
| Cc1cn(CCCCCCOC(=O)NC(CCCNC(N)=O)C(=O)O)c(=O)[nH]c1=O (stereo unspecified) |  |  | > 100 µM (inactive) | > 100 µM (inactive) | > 100 µM (inactive) | > 100 µM (inactive) | > 100 µM (inactive) | > 100 µM (inactive) | > 100 µM (inactive) | > 100 µM (inactive) | > 100 µM (inactive) | > 100 µM (inactive) | > 100 µM (inactive) | > 100 µM (inactive) | > 100 µM (inactive) | > 100 µM (inactive) | > 100 µM (inactive) | > 100 µM (inactive) | > 100 µM (inactive) | > 100 µM (inactive) |
| Cc1ccc(/N=N/c2c(O)ccc3cc(S(=O)(=O)O)ccc23)c(C)c1 | > 100 µM (inactive) | > 100 µM (inactive) | > 100 µM (inactive) | > 100 µM (inactive) | > 100 µM (inactive) | > 100 µM (inactive) | > 100 µM (inactive) | > 100 µM (inactive) | > 100 µM (inactive) | > 100 µM (inactive) | > 100 µM (inactive) | > 100 µM (inactive) | > 100 µM (inactive) | > 100 µM (inactive) |  | > 100 µM (inactive) | > 100 µM (inactive) | > 100 µM (inactive) | > 100 µM (inactive) | > 100 µM (inactive) |
| COc1cc2c(c(OC)c1OC)-c1ccc(SC)c(=O)cc1[C@@H](OC(=O)c1ccncc1)CC2 | < 0.01 µM (active) | < 0.01 µM (active) | < 0.01 µM (active) | < 0.01 µM (active) | < 0.01 µM (active) |  | < 0.0116 µM (active) | < 0.01 µM (active) | < 0.01 µM (active) | < 0.01 µM (active) | < 0.01 µM (active) | 7.78 µM (inactive) | < 0.01 µM (active) |  | < 0.01 µM (active) | < 0.01 µM (active) | 30.1 µM (inactive) | < 0.01 µM (active) | < 0.01 µM (active) | 0.0165 µM (active) |

Source: ChEMBL document CHEMBL1201862, “PubChem BioAssay data set” (2004)
